Data reported in PubChem BioAssay (NCI).
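In this assay, cells in 96-well plates receive the compound at five concentrations for 48 hours. Endpoints are linearly interpolated between the surrounding concentrations. At the TGI there is no net growth.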

Legend:
Experiment in all cases: NCI-60 cell line screen, 48 h
TK-10 renal = tested on: TK-10 renal
OVCAR-5 ovarian = tested on: OVCAR-5 ovarian
A498 renal = tested on: A498 renal
LOX IMVI melanoma = tested on: LOX IMVI melanoma
MDA-MB-435 = tested on: MDA-MB-435
A549 NSCLC = tested on: A549 NSCLC
NCI-H23 lung = tested on: NCI-H23 lung
HCC-2998 colon = tested on: HCC-2998 colon
COLO 205 colon = tested on: COLO 205 colon
NCI-H460 lung = tested on: NCI-H460 lung
HCT-15 colon = tested on: HCT-15 colon
MCF7 breast = tested on: MCF7 breast
HS 578T breast = tested on: HS 578T breast
MOLT-4 leukemia = tested on: MOLT-4 leukemia
SNB-19 CNS = tested on: SNB-19 CNS
786-0 renal = tested on: 786-0 renal
HL-60(TB) leukemia = tested on: HL-60(TB) leukemia
HOP-92 NSCLC = tested on: HOP-92 NSCLC
SF-539 CNS = tested on: SF-539 CNS
UACC-257 melanoma = tested on: UACC-257 melanoma
SK-OV-3 ovarian = tested on: SK-OV-3 ovarian
ACHN renal = tested on: ACHN renal
SNB-75 CNS = tested on: SNB-75 CNS
HCT-116 colon = tested on: HCT-116 colon
HT29 colon = tested on: HT29 colon
SF-268 CNS = tested on: SF-268 CNS
NCI-H522 lung = tested on: NCI-H522 lung
OVCAR-8 ovarian = tested on: OVCAR-8 ovarian
SN12C renal = tested on: SN12C renal
OVCAR-3 ovarian = tested on: OVCAR-3 ovarian
EKVX NSCLC = tested on: EKVX NSCLC
MDA-MB-231 breast = tested on: MDA-MB-231 breast
PC-3 prostate = tested on: PC-3 prostate
U251 CNS = tested on: U251 CNS
SK-MEL-5 melanoma = tested on: SK-MEL-5 melanoma
CCRF-CEM leukemia = tested on: CCRF-CEM leukemia
MDA-N = tested on: MDA-N
HOP-62 NSCLC = tested on: HOP-62 NSCLC
UO-31 renal = tested on: UO-31 renal
KM12 colon = tested on: KM12 colon
NCI/ADR-RES ovarian = tested on: NCI/ADR-RES ovarian
UACC-62 melanoma = tested on: UACC-62 melanoma
SW-620 colon = tested on: SW-620 colon
SK-MEL-2 melanoma = tested on: SK-MEL-2 melanoma
SR leukemia = tested on: SR leukemia
DU-145 prostate = tested on: DU-145 prostate
RXF 393 renal = tested on: RXF 393 renal
MALME-3M melanoma = tested on: MALME-3M melanoma
NCI-H226 lung = tested on: NCI-H226 lung
SK-MEL-28 melanoma = tested on: SK-MEL-28 melanoma
M14 melanoma = tested on: M14 melanoma
IGROV1 ovarian = tested on: IGROV1 ovarian
CAKI-1 renal = tested on: CAKI-1 renal
OVCAR-4 ovarian = tested on: OVCAR-4 ovarian
BT-549 breast = tested on: BT-549 breast
SF-295 CNS = tested on: SF-295 CNS
RPMI-8226 leukemia = tested on: RPMI-8226 leukemia
K-562 leukemia = tested on: K-562 leukemia

Cc1cc(O)c(C=NC(=S)c2ccncc2)c(=O)o1
TGI (TK-10 renal): > 100 µM | TGI (OVCAR-5 ovarian): > 100 µM | TGI (A498 renal): > 100 µM | TGI (LOX IMVI melanoma): > 100 µM | TGI (MDA-MB-435): > 100 µM | TGI (A549 NSCLC): > 100 µM | TGI (NCI-H23 lung): > 100 µM | TGI (HCC-2998 colon): > 100 µM | TGI (COLO 205 colon): > 100 µM | TGI (NCI-H460 lung): > 100 µM | TGI (HCT-15 colon): > 100 µM | TGI (MCF7 breast): > 100 µM | TGI (HS 578T breast): > 100 µM | TGI (MOLT-4 leukemia): > 100 µM | TGI (SNB-19 CNS): > 100 µM | TGI (786-0 renal): > 100 µM | TGI (HL-60(TB) leukemia): > 100 µM | TGI (HOP-92 NSCLC): > 100 µM | TGI (SF-539 CNS): > 100 µM | TGI (UACC-257 melanoma): > 100 µM | TGI (SK-OV-3 ovarian): > 100 µM | TGI (ACHN renal): > 100 µM | TGI (SNB-75 CNS): > 100 µM | TGI (HCT-116 colon): > 100 µM | TGI (HT29 colon): > 100 µM | TGI (SF-268 CNS): > 100 µM | TGI (NCI-H522 lung): > 100 µM | TGI (OVCAR-8 ovarian): > 100 µM | TGI (SN12C renal): > 100 µM | TGI (OVCAR-3 ovarian): > 100 µM | TGI (EKVX NSCLC): > 100 µM | TGI (MDA-MB-231 breast): > 100 µM | TGI (PC-3 prostate): > 100 µM | TGI (U251 CNS): > 100 µM | TGI (SK-MEL-5 melanoma): > 100 µM | TGI (CCRF-CEM leukemia): > 100 µM | TGI (MDA-N): > 100 µM | TGI (HOP-62 NSCLC): > 100 µM | TGI (UO-31 renal): > 100 µM | TGI (KM12 colon): > 100 µM | TGI (NCI/ADR-RES ovarian): > 100 µM | TGI (UACC-62 melanoma): > 100 µM | TGI (SW-620 colon): > 100 µM | TGI (SK-MEL-2 melanoma): > 100 µM | TGI (SR leukemia): > 100 µM | TGI (DU-145 prostate): > 100 µM | TGI (RXF 393 renal): > 100 µM | TGI (MALME-3M melanoma): > 100 µM | TGI (NCI-H226 lung): > 100 µM | TGI (SK-MEL-28 melanoma): > 100 µM | TGI (M14 melanoma): > 100 µM | TGI (IGROV1 ovarian): > 100 µM | TGI (CAKI-1 renal): > 100 µM | TGI (OVCAR-4 ovarian): > 100 µM | TGI (BT-549 breast): > 100 µM | TGI (SF-295 CNS): > 100 µM

CNC(=O)c1ccc(C(=O)NCCCCCN(O)C(=O)CCC(=O)NCCCCCN(O)C(=O)CCC(=O)NCCCCCN(O)C(C)=O)c(O)c1O
TGI (TK-10 renal): > 100 µM | TGI (OVCAR-5 ovarian): > 100 µM | TGI (A498 renal): > 100 µM | TGI (LOX IMVI melanoma): > 100 µM | TGI (MDA-MB-435): > 100 µM | TGI (A549 NSCLC): > 100 µM | TGI (NCI-H23 lung): > 100 µM | TGI (HCC-2998 colon): > 100 µM | TGI (RPMI-8226 leukemia): > 100 µM | TGI (COLO 205 colon): > 100 µM | TGI (NCI-H460 lung): > 100 µM | TGI (HCT-15 colon): > 100 µM | TGI (MCF7 breast): > 100 µM | TGI (HS 578T breast): > 100 µM | TGI (SNB-19 CNS): > 100 µM | TGI (786-0 renal): > 100 µM | TGI (HL-60(TB) leukemia): > 100 µM | TGI (HOP-92 NSCLC): > 100 µM | TGI (SF-539 CNS): > 100 µM | TGI (UACC-257 melanoma): > 100 µM | TGI (SK-OV-3 ovarian): > 100 µM | TGI (ACHN renal): > 100 µM | TGI (SNB-75 CNS): > 100 µM | TGI (HCT-116 colon): > 100 µM | TGI (HT29 colon): > 100 µM | TGI (SF-268 CNS): > 100 µM | TGI (NCI-H522 lung): > 100 µM | TGI (OVCAR-8 ovarian): > 100 µM | TGI (SN12C renal): > 100 µM | TGI (OVCAR-3 ovarian): > 100 µM | TGI (MDA-MB-231 breast): > 100 µM | TGI (PC-3 prostate): > 100 µM | TGI (K-562 leukemia): > 100 µM | TGI (U251 CNS): > 100 µM | TGI (SK-MEL-5 melanoma): > 100 µM | TGI (CCRF-CEM leukemia): 31 µM | TGI (MDA-N): > 100 µM | TGI (HOP-62 NSCLC): > 100 µM | TGI (UO-31 renal): > 100 µM | TGI (KM12 colon): > 100 µM | TGI (NCI/ADR-RES ovarian): > 100 µM | TGI (UACC-62 melanoma): > 100 µM | TGI (SW-620 colon): > 100 µM | TGI (SK-MEL-2 melanoma): > 100 µM | TGI (DU-145 prostate): > 100 µM | TGI (RXF 393 renal): > 100 µM | TGI (MALME-3M melanoma): > 100 µM | TGI (NCI-H226 lung): > 100 µM | TGI (SK-MEL-28 melanoma): > 100 µM | TGI (M14 melanoma): > 100 µM | TGI (IGROV1 ovarian): > 100 µM | TGI (CAKI-1 renal): > 100 µM | TGI (OVCAR-4 ovarian): > 100 µM | TGI (BT-549 breast): > 100 µM | TGI (SF-295 CNS): > 100 µM
